The target in test [1] is Inhibitor of nuclear factor kappa-B kinase subunit beta (Homo sapiens, UniProt O14920). The experiment in a line: Inhibition of IKKbeta (unknown origin) using GST-SLP-76 as peptide substrate incubated for 10 mins in presence of [gamma-33P]ATP by scintillation counter assay.
Test [2] addresses T1, Tyrosine-protein kinase Tec (Homo sapiens, UniProt P42680).
T1 sequence (P42680 whole entry): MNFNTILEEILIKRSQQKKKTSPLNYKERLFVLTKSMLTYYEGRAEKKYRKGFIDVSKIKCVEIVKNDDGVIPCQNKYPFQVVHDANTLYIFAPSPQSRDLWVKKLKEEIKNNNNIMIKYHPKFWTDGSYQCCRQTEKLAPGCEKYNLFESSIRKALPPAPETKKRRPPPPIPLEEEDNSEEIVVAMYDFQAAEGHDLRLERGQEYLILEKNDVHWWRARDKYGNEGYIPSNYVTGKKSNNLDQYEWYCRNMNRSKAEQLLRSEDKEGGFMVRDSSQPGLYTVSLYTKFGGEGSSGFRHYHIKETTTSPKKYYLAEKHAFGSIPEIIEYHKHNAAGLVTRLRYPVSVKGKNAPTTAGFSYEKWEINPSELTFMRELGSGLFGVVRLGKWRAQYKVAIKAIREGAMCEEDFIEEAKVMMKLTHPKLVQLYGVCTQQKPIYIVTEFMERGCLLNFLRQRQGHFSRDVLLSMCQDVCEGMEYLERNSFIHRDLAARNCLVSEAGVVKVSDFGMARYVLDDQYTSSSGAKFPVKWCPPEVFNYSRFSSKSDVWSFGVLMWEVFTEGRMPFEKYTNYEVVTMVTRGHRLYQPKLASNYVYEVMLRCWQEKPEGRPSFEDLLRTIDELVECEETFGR
The experiment in a line: Inhibition of Tec (unknown origin) using GST-SLP-76 as peptide substrate incubated for 10 mins in presence of [gamma-33P]ATP by scintillation counter assay.

In test [3] the target is cAMP-dependent protein kinase (PKA) (Homo sapiens, UniProt P22694+P17612+P22612). The experiment in a line: Inhibition of PKA (unknown origin) using GST-SLP-76 as peptide substrate incubated for 10 mins in presence of [gamma-33P]ATP by scintillation counter assay. The test is classed as protein assay.
The target of test [4] is Tyrosine-protein kinase Lck (Homo sapiens, UniProt P06239). Nature of the test: Inhibition of Lck (unknown origin) using GST-SLP-76 as peptide substrate incubated for 10 mins in presence of [gamma-33P]ATP by scintillation counter assay.
Test [5] concerns the target RAC-alpha serine/threonine-protein kinase (Homo sapiens, UniProt P31749). Nature of the test: Inhibition of Akt1 (unknown origin) using GST-SLP-76 as peptide substrate incubated for 10 mins in presence of [gamma-33P]ATP by scintillation counter assay.
The target in test [6] is T2, Tyrosine-protein kinase ITK/TSK (Homo sapiens) (UniProt Q08881).
T2 sequence (whole entry): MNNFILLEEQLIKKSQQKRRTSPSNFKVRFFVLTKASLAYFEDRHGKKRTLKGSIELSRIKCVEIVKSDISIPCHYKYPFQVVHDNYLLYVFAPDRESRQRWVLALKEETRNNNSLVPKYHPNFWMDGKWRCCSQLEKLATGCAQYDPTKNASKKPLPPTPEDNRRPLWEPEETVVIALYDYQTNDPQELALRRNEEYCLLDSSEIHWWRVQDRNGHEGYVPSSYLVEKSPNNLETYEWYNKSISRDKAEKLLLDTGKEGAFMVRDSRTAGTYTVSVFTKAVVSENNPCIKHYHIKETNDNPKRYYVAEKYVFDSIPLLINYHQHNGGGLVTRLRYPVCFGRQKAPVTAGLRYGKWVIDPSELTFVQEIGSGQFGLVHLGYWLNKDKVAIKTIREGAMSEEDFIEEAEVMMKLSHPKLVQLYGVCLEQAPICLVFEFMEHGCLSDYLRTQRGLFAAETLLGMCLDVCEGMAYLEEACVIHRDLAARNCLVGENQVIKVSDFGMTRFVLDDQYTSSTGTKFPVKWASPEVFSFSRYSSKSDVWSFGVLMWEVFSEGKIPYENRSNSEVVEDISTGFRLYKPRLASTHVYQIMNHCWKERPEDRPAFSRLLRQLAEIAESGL
The experiment in a line: Inhibition of Itk in human PBMC cells assessed as inhibition of IL-2 secretion incubated for 16 hrs in presence of anti-CD3 antibody G19-4 by ELISA analysis. In kind it is cell-based. For orientation: In an ELISA, binding on a coated surface is turned into a signal by an enzyme label.

The target of test [7] is Tyrosine-protein kinase ITK/TSK (Mus musculus) (UniProt Q03526). Nature of the test: Inhibition of Itk in mouse EL4 cells assessed as inhibition of IL-2 secretion incubated for 16 hrs in presence of anti-CD3 antibody G19-4 by ELISA analysis. In kind it is cell-based.
For test [8], the target named is T2, Tyrosine-protein kinase ITK/TSK (Homo sapiens). The experiment in a line: Inhibition of Itk in EGF-stimulated human A549 cells assessed as reduction in tyrosine phosphorylation at <=10 uM incubated for 20 mins by Western blotting analysis. The test is classed as cell-based.
The target in another test is Insulin receptor (Homo sapiens, UniProt P06213). Nature of the test: Inhibition of IR (unknown origin) using GST-SLP-76 as peptide substrate incubated for 10 mins in presence of [gamma-33P]ATP by scintillation counter assay.
Test [9] can be described thus: Inhibition of CaMKII (unknown origin) using GST-SLP-76 as peptide substrate incubated for 10 mins in presence of [gamma-33P]ATP by scintillation counter assay. More on the design: species or system Homo sapiens.
The target in test [10] is Glycogen synthase kinase-3 beta (Homo sapiens, UniProt P49841). The experiment in a line: Inhibition of GSK-3beta (unknown origin) using GST-SLP-76 as peptide substrate incubated for 10 mins in presence of [gamma-33P]ATP by scintillation counter assay.
The target in test [11] is T3, Tyrosine-protein kinase TXK (Homo sapiens, UniProt P42681).
T3 sequence (P42681 whole entry): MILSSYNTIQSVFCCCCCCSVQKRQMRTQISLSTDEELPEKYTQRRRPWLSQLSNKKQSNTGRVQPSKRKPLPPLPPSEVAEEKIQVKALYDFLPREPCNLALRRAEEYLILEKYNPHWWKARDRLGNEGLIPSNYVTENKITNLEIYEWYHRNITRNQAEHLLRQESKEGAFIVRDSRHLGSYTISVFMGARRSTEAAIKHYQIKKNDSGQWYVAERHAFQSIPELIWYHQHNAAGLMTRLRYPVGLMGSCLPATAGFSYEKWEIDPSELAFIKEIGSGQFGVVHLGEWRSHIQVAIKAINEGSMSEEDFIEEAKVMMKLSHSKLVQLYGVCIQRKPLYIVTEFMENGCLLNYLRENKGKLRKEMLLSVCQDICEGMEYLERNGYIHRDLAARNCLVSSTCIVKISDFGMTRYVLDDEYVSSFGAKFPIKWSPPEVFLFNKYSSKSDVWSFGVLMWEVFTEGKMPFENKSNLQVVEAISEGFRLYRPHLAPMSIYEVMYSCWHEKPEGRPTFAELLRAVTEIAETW
Nature of the test: Inhibition of Txk (unknown origin) using GST-SLP-76 as peptide substrate incubated for 10 mins in presence of [gamma-33P]ATP by scintillation counter assay.

The target in test [12] is Tyrosine-protein kinase SYK (Homo sapiens, UniProt P43405). Nature of the test: Inhibition of Syk (unknown origin) using GST-SLP-76 as peptide substrate incubated for 10 mins in presence of [gamma-33P]ATP by scintillation counter assay.

Calls of active or inactive are those of the source. The rule behind the calls is not given here.

From ChEMBL document CHEMBL5715936, “Selective Itk inhibitors block T-cell activation and murine lung inflammation” (Biochemistry, 2004) come the findings set out here.

Sequence of Inhibitor of nuclear factor kappa-B kinase subunit beta (O14920 whole entry): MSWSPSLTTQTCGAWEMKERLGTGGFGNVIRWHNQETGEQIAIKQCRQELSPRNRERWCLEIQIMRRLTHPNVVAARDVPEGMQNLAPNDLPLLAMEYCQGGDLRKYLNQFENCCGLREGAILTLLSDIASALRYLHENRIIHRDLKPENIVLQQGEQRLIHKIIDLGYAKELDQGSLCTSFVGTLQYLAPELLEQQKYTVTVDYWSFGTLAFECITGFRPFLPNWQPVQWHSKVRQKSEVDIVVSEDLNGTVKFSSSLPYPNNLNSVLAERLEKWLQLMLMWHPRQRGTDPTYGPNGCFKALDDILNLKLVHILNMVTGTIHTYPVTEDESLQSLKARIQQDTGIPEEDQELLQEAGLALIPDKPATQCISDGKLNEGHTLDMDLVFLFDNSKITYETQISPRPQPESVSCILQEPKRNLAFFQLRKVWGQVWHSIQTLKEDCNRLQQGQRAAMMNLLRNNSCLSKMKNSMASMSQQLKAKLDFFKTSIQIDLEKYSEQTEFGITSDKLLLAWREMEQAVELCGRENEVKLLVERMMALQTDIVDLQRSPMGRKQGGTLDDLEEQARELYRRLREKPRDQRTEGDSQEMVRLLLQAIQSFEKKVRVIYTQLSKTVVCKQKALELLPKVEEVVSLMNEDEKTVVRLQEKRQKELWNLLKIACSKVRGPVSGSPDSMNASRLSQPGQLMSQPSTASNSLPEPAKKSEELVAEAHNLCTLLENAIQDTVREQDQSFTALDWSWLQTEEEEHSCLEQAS
Sequence of RAC-alpha serine/threonine-protein kinase (P31749 whole entry): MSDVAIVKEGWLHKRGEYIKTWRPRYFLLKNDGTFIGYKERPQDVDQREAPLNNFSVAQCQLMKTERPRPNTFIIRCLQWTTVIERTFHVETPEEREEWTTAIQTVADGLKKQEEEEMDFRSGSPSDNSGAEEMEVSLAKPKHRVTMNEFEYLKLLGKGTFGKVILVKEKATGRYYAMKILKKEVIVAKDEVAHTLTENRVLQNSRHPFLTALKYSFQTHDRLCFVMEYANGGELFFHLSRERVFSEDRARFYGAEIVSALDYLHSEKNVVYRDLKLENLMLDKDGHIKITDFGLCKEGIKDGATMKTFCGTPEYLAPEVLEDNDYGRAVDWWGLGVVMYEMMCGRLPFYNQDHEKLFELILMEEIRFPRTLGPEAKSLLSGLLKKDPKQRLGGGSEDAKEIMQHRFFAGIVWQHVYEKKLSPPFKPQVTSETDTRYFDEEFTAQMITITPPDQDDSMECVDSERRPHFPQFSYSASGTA
Sequence of Tyrosine-protein kinase Lck (P06239 whole entry): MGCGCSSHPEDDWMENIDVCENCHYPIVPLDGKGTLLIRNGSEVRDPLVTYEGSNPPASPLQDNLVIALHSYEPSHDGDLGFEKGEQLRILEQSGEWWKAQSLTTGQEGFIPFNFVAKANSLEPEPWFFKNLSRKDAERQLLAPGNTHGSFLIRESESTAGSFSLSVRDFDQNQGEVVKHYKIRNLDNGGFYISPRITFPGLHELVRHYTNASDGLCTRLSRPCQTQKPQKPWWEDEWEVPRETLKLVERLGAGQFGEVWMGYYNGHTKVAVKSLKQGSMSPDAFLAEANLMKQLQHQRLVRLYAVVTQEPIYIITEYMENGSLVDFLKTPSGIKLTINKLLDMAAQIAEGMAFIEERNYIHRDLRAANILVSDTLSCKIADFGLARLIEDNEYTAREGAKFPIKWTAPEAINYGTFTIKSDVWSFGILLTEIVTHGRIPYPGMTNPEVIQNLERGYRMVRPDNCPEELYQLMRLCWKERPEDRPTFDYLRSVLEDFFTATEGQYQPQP
Sequence of Insulin receptor (P06213 28-758 limits assumed): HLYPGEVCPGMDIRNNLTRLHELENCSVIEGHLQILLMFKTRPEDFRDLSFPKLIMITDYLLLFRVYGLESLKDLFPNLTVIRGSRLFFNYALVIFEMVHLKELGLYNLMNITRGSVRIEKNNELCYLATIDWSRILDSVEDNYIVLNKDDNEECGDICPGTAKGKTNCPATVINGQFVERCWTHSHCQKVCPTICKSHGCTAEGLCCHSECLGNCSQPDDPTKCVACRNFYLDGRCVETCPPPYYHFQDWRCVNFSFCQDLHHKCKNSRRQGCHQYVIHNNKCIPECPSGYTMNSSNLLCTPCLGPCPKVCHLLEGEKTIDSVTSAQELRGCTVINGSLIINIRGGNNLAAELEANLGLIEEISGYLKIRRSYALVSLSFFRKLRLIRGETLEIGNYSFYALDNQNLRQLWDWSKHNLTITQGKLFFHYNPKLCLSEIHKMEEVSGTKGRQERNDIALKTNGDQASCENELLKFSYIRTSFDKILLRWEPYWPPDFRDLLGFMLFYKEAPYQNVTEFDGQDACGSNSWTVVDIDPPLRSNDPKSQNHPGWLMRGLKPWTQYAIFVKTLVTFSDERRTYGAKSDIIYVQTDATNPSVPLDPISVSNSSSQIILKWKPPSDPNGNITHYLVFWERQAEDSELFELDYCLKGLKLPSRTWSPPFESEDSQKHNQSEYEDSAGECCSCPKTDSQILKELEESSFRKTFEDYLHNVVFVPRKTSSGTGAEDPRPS
Sequence of Insulin receptor (P06213 763-1382 limits assumed): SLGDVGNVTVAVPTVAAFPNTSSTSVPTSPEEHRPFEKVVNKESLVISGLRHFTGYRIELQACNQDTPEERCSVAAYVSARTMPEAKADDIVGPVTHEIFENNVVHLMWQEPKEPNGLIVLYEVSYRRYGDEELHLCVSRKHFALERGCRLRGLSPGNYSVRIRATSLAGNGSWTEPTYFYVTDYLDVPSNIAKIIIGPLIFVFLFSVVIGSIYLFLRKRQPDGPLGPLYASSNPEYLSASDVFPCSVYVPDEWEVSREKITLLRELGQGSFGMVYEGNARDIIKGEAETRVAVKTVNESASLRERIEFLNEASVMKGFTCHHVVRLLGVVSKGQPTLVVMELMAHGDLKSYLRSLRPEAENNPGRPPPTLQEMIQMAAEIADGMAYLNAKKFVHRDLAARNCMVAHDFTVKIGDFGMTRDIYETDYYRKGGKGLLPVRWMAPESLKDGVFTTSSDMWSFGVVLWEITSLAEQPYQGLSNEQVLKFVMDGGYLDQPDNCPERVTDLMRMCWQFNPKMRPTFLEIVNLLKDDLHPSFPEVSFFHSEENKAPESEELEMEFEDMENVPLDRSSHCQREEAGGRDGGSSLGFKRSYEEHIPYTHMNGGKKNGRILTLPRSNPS
Sequence of Glycogen synthase kinase-3 beta (P49841 whole entry): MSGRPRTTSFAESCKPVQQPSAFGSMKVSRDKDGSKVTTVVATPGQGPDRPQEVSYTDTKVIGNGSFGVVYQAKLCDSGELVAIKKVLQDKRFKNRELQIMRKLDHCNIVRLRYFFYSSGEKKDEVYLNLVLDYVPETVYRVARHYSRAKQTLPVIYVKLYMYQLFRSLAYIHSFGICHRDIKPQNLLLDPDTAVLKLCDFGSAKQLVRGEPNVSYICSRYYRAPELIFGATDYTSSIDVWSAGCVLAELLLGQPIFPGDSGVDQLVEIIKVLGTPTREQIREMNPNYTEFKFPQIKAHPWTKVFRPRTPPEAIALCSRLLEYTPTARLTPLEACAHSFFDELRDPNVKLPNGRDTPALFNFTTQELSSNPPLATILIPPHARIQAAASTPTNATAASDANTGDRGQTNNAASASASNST
Sequence of Tyrosine-protein kinase ITK/TSK (Mus musculus) (Q03526 whole entry): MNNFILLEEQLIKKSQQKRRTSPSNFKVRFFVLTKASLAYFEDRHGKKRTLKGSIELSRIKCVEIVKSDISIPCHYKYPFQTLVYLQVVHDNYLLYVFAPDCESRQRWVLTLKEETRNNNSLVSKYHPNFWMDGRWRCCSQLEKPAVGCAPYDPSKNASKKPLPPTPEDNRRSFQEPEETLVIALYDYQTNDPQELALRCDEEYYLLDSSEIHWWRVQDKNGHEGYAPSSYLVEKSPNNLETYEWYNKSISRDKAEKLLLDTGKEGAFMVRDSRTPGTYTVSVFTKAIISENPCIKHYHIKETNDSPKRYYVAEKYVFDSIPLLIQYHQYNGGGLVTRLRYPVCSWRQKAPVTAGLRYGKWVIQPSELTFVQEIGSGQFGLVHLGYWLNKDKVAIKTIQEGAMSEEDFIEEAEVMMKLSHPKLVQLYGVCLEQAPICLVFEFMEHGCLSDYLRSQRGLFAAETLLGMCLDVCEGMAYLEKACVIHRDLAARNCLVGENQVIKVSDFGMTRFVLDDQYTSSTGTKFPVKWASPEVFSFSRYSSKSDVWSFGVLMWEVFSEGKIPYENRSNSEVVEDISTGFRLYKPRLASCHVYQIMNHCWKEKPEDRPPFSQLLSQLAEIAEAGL

On to `CC(=O)N1CCN(C(=O)c2cc(CSc3cnc(NC(=O)c4ccc(CNC(C)C(C)(C)C)cc4)s3)cc(C)c2C)CC1` (centres undefined), for which the IC50 in test [1] was over 50 µM; in test [2], over 50 µM; in [3], over 50 µM; in test [4] it was 27 µM; in test [5], over 50 µM; at Insulin receptor it was 4.4 µM. Moreover, the IC50 in [9] is over 50 µM; in test [10] it was 47.4 µM; in [11] it was over 50 µM; in test [12] it was over 50 µM. Further, the inhibition entry in test [6] and in [7] was “Dose-Dependent Effect” each time. Also, the inhibition entry in test [8] was “Active”.

For `COc1cc(C)c(Sc2cnc(NC(=O)c3ccc(CNC(C)C(C)(C)C)cc3)s2)cc1C(=O)N1CCN(C(C)=O)CC1` (centres undefined), the IC50 in test [1] was over 50 µM; in [2], 17 µM; in test [3], over 50 µM; in [4] it was 2.4 µM; in test [5], over 50 µM; at Insulin receptor it was 1.1 µM. The half-inhibitory concentration (IC50) is 33.5 µM in test [9], 36 µM in test [10], 11 µM in test [11] and over 50 µM in [12]. Besides, the inhibition result in test [8] is “Active”.

As a reminder, the IC50 is the concentration at which inhibition is half-maximal.
